# Experimental data reported in ChEMBL document CHEMBL1201862, “PubChem BioAssay data set” (2004).
# Active and inactive are the calls of the source.
# How the values were obtained:
# [1] = target: Glucose-6-phosphate 1-dehydrogenase (Homo sapiens, UniProt P11413); assay: inhibition of Homo sapiens G6PD, dose series – biochemical, fluorescence, selectivity assay for P. falciparum G6PD inhibitor project, dose response (AID 504792); type: functional
# [2] = HEK-293T cell viability reduction – luminescence, B-cell screen hits, cytotoxicity control for BCR NF-kB inhibitor project, dose response (AID 489021); type: functional, cell-based;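 also: HEK-293T cells carrying an NF-kB luciferase reporter; cells exposed to compound for about 14 hours before viability readout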
# [3] = target: T1, Calpain-2 catalytic subunit (Sus scrofa, UniProt P43367); assay: m-calpain protease blockers, concentration series – biochemical, fluorogenic peptide substrate, dose response (AID 1420); type: functional
# T1 sequence (P43367 whole entry): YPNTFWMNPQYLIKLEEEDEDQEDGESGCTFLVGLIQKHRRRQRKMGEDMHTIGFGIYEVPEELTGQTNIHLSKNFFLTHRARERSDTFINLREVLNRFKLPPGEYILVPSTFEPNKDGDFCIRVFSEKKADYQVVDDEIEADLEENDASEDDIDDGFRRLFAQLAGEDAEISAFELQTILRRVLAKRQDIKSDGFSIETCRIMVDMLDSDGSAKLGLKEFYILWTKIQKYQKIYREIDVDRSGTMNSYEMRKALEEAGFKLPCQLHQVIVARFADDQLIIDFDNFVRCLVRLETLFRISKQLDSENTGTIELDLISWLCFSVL
# [4] = viability of PTEN-deleted HCT116 cells – cell-based, HCT116 PTEN knockout, dose response (AID 1047); type: functional;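 also: HCT116 colon tumor cells with PTEN knocked out; cells exposed to compound for 60 hours before readout; potency for loss of cell viability measured by luminescence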
# [5] = viability of HCT116 lacking mutant beta-catenin – cell-based, human colon tumor, dose response (AID 1045); type: functional;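 also: HCT116 colon tumor cells with beta catenin knocked out; cells exposed to compound for 60 hours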
# [6] = reduction of Shn3 3'UTR-driven luciferase in osteoblasts – cell-based, Clone20 osteoblasts, firefly luciferase, cherry-picked, dose response (AID 624132); type: functional;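 also: firefly luciferase luminescence from reporter carrying the Shn3 3'UTR in osteoblasts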
# [7] = loss of viability in HepG2 cells – cell-based, CellTiter-Glo, cherry-picked, cytotoxicity control for Shn3 inhibitor project, dose response (AID 624134); type: functional
# [8] = non-specific 3'UTR reporter inhibition in Clone20-Shn3RL – cell-based, Renilla luciferase, cherry-picked, counter-screen for Shn3 inhibitor project, dose response (AID 624133); type: functional
# [9] = target: T2, Heat shock factor protein 1 (Mus musculus, UniProt P38532); assay: enhancement of HSF1-driven luciferase signal – cell-based, NIH3T3, luminescence, dose retest, confirmation (AID 435004); type: functional;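 also: stress induced by proteasome inhibitor MG132 added 30 min after compound; luciferase reporter driven by HSF1 response element in NIH3T3 cells; actives raise luminescence as potentiators of the MG132 stress response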
# T2 sequence (P38532 whole entry): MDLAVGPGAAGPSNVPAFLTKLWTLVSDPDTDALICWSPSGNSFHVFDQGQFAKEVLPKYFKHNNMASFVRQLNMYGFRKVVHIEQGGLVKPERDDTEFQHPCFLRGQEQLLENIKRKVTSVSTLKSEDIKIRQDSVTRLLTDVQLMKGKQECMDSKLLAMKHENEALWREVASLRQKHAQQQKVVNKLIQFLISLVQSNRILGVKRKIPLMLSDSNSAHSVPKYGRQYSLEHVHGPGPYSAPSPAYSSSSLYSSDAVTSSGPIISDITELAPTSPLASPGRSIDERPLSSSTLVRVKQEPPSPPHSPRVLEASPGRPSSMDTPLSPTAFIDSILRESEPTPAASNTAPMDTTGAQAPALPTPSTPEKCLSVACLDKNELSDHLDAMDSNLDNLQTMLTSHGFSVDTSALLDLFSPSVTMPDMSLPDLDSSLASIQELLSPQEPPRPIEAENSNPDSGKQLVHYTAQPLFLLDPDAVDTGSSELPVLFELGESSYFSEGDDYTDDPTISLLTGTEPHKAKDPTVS
# [10] = tested on: INS1; assay: INS-1E survival protection against cytokine death – cell-based, luminescence, retest, dose response (AID 449756); type: functional; settings: Rattus norvegicus, INS1;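 also: cell death triggered by IL-1 beta plus TNF-alpha plus IFN-gamma mixture; protective hits raise ATP signal compared with cytokine alone wells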
# [11] = target: Genome polyprotein (dengue virus type 2, UniProt P29990); assay: flavivirus cap methylation enzyme inhibition – biochemical, confirmation dose response, primary screen (AID 588689); type: functional
# [12] = Luminescence Cell-Based Dose Confirmation HTS to Identify Activators of 5'UTR Stem-Loop Driven Alpha-Synuclein mRNA Translation in H4 Neuroglioblastoma Cells. [Related pubchem assays: 1829 (Project Summary), 1814 (Primary HTS)]; type: functional
# [13] = Luminescence Cell-Based Dose Response HTS to Identify Activators of Luciferase Translation or Activity in H4 […] Cells. [Related pubchem assays: 1829 (Project Summary), 1814 (Primary HTS)]; type: functional
# [14] = tested on: H4; assay: Luminescence Cell-Based Dose Response HTS to Identify Activators of 5'UTR Stem-Loop Driven Prion Protein mRNA Translation in H4 Neuroglioblastoma Cells. [Related pubchem assays: 1829 (Project Summary), 1814 (Primary HTS)]; type: functional; settings: Homo sapiens
# [15] = target: Large T antigen (Simian virus 40, UniProt P03070); type: functional, Betapolyomavirus macacae;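 also: Confirmatory-stage PubChem screen for compounds that inhibit SV40 T antigen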
# [16] = target: T3, Ubiquitin-conjugating enzyme E2 N (Homo sapiens, UniProt P61088); type: functional;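 also: Dose-response confirmation in a TR-FRET assay detecting UBC13-driven polyubiquitin chain formation, inhibition measured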
# T3 sequence (P61088 whole entry): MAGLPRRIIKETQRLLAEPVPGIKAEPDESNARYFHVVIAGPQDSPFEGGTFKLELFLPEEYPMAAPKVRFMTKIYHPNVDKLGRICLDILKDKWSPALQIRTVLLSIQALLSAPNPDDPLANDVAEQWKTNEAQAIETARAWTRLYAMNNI
# [17] = blockers of CRF-binding protein–CRF-R2 complex – cell-based, uHTS hits, 384-well, dose response (AID 651639); type: functional, Homo sapiens; settings: read-out: IC50_Mean
# [18] = target: T4, Carboxy-terminal domain RNA polymerase II polypeptide A small phosphatase 1 (Homo sapiens, UniProt Q9GZU7); assay: CTDSP1 inhibitors, concentration-response, biochemical, absorbance readout, ultra-high-throughput screen actives (AID 540297); type: functional
# T4 sequence (Q9GZU7 whole entry): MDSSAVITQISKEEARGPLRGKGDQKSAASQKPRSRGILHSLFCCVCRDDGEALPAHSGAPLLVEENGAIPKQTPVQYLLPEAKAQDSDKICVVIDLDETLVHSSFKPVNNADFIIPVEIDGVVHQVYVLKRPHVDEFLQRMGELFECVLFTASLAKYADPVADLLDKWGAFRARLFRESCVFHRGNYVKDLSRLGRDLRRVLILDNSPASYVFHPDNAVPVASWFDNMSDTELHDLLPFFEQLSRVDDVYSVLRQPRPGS
# [19] = blockers of HIV-1 envelope-mediated cell-cell fusion – cherry-pick, dose response (AID 652057); type: functional, cell-based
# [20] = HIV-1 AD8 envelope cell-cell fusion blockers – cherry-pick, dose response (AID 652062); type: functional, cell-based;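 also: luciferase signal from cell-cell fusion driven by HIV-1 clade B AD8 Env; potency is for inhibitors of fusion seen as a drop in luminescence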
# [21] = tested on: P388/ADR; assay: cells; type: functional; settings: Mus musculus
# [22] = tested on: SN12K1; assay: cells; type: functional; settings: Homo sapiens
# [23] = tested on: P388; assay: cells; type: functional; settings: Mus musculus
# [24] = cells; type: functional
# Chain of Genome polyprotein (P29990 2492-3391 limits assumed): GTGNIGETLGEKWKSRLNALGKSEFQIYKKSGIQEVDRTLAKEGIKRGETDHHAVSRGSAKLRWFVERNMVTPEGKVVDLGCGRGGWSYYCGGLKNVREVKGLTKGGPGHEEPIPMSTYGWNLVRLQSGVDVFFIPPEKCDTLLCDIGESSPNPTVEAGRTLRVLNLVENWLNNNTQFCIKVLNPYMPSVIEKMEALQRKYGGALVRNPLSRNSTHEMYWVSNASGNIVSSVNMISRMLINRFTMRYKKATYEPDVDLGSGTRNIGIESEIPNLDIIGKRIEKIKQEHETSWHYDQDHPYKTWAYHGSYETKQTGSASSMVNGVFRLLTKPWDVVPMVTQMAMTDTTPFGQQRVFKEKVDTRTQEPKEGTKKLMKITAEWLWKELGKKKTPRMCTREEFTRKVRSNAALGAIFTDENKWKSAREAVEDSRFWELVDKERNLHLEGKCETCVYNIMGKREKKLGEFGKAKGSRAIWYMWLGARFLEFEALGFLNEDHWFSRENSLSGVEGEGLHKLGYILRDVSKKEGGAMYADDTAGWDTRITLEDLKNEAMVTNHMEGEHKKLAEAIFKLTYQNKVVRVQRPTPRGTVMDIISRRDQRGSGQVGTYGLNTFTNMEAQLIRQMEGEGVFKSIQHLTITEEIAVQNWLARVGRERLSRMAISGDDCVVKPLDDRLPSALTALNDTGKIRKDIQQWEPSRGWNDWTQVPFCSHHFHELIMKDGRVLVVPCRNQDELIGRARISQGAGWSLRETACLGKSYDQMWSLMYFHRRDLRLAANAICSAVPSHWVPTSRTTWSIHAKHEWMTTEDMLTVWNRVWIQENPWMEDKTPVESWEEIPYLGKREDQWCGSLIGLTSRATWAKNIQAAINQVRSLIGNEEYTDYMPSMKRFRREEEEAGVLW
# Chain of Glucose-6-phosphate 1-dehydrogenase (P11413 whole entry): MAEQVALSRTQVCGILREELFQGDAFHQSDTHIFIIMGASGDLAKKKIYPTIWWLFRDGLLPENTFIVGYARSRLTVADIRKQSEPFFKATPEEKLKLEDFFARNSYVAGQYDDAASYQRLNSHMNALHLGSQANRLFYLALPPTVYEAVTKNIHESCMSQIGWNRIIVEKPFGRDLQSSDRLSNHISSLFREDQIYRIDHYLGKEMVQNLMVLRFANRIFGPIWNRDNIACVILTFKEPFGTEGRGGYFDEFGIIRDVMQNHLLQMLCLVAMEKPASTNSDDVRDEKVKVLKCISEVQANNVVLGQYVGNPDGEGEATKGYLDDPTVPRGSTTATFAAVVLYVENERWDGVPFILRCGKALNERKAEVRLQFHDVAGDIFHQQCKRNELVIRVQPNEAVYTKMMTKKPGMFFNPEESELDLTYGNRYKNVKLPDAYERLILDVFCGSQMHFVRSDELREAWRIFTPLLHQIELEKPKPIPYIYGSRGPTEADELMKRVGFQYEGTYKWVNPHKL
# Chain of Large T antigen (P03070 whole entry): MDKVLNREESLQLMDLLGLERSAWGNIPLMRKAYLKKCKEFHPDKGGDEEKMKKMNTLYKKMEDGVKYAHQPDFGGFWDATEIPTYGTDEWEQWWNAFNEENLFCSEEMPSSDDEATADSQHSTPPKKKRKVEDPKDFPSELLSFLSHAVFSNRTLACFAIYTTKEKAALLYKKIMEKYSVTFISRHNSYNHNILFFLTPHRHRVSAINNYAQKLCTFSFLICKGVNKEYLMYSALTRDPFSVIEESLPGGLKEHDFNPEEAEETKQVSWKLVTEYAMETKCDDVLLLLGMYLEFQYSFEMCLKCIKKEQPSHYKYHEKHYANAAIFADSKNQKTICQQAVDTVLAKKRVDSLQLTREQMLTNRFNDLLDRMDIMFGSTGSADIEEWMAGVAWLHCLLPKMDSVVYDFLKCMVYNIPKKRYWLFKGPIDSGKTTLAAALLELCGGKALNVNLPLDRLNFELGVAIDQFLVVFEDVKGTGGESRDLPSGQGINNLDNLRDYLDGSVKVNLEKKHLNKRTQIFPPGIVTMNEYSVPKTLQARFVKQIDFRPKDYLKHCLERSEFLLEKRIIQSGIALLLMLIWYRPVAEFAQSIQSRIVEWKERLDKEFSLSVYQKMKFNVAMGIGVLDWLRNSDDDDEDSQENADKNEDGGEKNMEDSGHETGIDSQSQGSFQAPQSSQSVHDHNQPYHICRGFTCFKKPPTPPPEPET
compound,measurement,setting,value
CCOC(=O)c1sc(NC(=O)CSc2nnc(Cc3ccccc3)o2)c(C#N)c1C,IC50,[1],> 80 µM (inactive)
C/C=C(/C)C(=O)OC1Cc2c(ccc3ccc(=O)oc23)OC1(C)C (centres undefined),IC50,[2],> 80 µM (inactive)
Cc1cc(NC(=O)CSc2nc3ccsc3c(=O)n2CCCC(=O)NCCc2ccccc2)no1,IC50,[3],14.1 µM (not active)
CCc1ccc(OCC(=O)NC(N=C(S)Nc2ccc(Cl)cc2)C(Cl)(Cl)Cl)cc1 (centres undefined),EC50,[4],13.8 µM (active)
same,EC50,[5],13.6 µM (active)
same,AC50,[6],4.96 µM (active)
same,AC50,[7],18.1 µM (active)
same,AC50,[8],26.1 µM (active)
CC1CN(Cc2csc(-c3ccc(Cl)cc3)n2)CC(C)O1 (centres undefined),IC50,[3],13.2 µM (not active)
CN1C(=O)c2cccc3c(S(=O)(=O)Nc4ccccc4F)ccc1c23,IC50,[2],> 80 µM (inactive)
O=C(CBr)c1ccc([N+](=O)[O-])c(CS(=O)(=O)c2ccc(Cl)cc2)c1,IC50,[1],> 80 µM (inactive)
same,EC50,[9],31.9 µM (active)
O=C(Nc1cc(Sc2ccccn2)cc([N+](=O)[O-])c1)c1cccc(F)c1,IC50,[3],5.86 µM (not active)
same,AC50,[10],5.55 µM (active)
CCOC(=O)C1CCCN(C(=O)CSc2ccc(NC(C)=O)cc2)C1 (centres undefined),IC50,[3],< 0.4 µM (not active)
O=C(NCc1ccco1)C1CCN(C(=O)c2cc3sccc3n2Cc2ccc(Cl)cc2)CC1,IC50,[3],10.9 µM (not active)
CCCCn1c(CN2CCN(c3ccc(F)cc3)CC2)nc2c1c(=O)n(C)c(=O)n2C,AC50,[6],2.73 µM (active)
same,AC50,[7],5.36 µM (active)
same,AC50,[8],23 µM (active)
COc1ccc(-c2ccc(OC)c([C@H]3[C@H]4C=CC[C@@H](C)[C@@H]4C(=O)N3Cc3ccccc3)c2)cc1C,IC50,[2],> 80 µM (inactive)
COc1cc(/C=C2\C(=N)N3N=C(N4CCOCC4)SC3=NC2=O)ccc1OC(=O)c1ccccc1,IC50,[11],80.1 µM (active)
C[C@H](NC(N)=O)C(=O)Nc1ccc(N2CCOCC2)c(S(=O)(=O)Nc2ccc(Cl)cc2)c1,IC50,[1],> 80 µM (inactive)
CCCn1c(O)nnc1SCc1nc2ccccc2s1,EC50,[12],3.71 µM (active)
same,EC50,[13],22.7 µM (active)
same,EC50,[14],37.1 µM (active)
same,IC50,[3],0.803 µM (not active)
CCN(CC)C(=O)c1ccc(S(=O)(=O)Cc2ccc(C)cc2)c([N+](=O)[O-])c1,IC50,[2],> 80 µM (inactive)
CC(C)[C@H](N)c1nnc(SCC(=O)c2ccc(Cl)cc2)o1,IC50,[2],> 80 µM (inactive)
O=P(Nc1cccc(Cl)c1)(Oc1ccccc1)Oc1ccccc1,IC50,[3],8.58 µM (not active)
O=C1NC(=O)C(=Cc2ccc(-c3ccccc3[N+](=O)[O-])o2)C(=O)N1,IC50,[15],62.2 µM (active)
same,IC50,[1],> 80 µM (inactive)
same,IC50,[11],17.8 µM (active)
Cc1c(Br)c([N+](=O)[O-])nn1CCCC(=O)Nc1c(C)n(C)n(-c2ccccc2)c1=O,IC50,[16],> 20 µM (inactive)
Clc1ccc2c(c1)CNc1c(ncnc1N1CCOCC1)O2,IC50,[16],> 20 µM (inactive)
NC(Cc1ccc([N+](=O)[O-])cc1)=NOC(=O)c1ccc(Br)cc1,IC50,[17],9.44 µM (active)
CN(c1ccccc1)S(=O)(=O)c1ccc(Cl)c(C(=O)OCC(=O)NCc2ccco2)c1,IC50,[18],8.74 µM (active)
CCOc1ccc(NC(=O)c2ccc(NC(=O)c3ccc(NC(N)=O)cc3)cc2)cc1,IC50,[18],3.89 µM (active)
CCOC(=O)c1c(NC(=O)c2ccc(C)cc2)sc2c1CC(C)(C)NC2(C)C,IC50,[16],> 20 µM (inactive)
O=C(COC(=O)c1c[nH]c(=O)[nH]c1=O)Nc1cccc([N+](=O)[O-])c1,IC50,[16],> 20 µM (inactive)
CC1CC(=O)C(C(C2=C(O)CC(C)CC2=O)c2ccccc2)=C(O)C1 (centres undefined),IC50,[11],66.2 µM (active)
CC(Cl)=CCn1c(NCCc2ccccc2)nc2c1c(=O)n(C)c(=O)n2C,AC50,[7],58.8 µM (active)
same,AC50,[8],0.974 µM (active)
same,AC50,[19],33.4 µM (active)
same,AC50,[20],3.67 µM (active)
CCc1c(CNc2ccc(C(=O)NC(CC(=O)O)C(=O)O)cc2)ccc2nc(N)nc(N)c12 (centres undefined),GI50,[21],0.0179 µM (active)
same,GI50,[22],< 20.2 nM (active)
same,GI50,[23],< 0.0144 µM (active)
CNC(=O)c1cccc2c(Nc3ccc(NS(C)(=O)=O)cc3OC)c3cccc(C)c3nc12,GI50,[21],0.0488 µM (active)
same,GI50,[22],< 10 nM (active)
same,GI50,[23],< 0.01 µM (active)
Cc1nc2ccccc2c(=O)n1CC(=O)O,GI50,[21],> 100 µM (inactive)
same,GI50,[22],> 100000 nM (inactive)
same,GI50,[23],> 100 µM (inactive)
Nc1ccc2c(c1)C1=NNC(=O)CC1C2 (centres undefined),GI50,[21],> 100 µM (inactive)
same,GI50,[22],> 100000 nM (inactive)
same,GI50,[23],> 100 µM (inactive)
O=C(C[C@@H]1CC[C@H]2[C@@H](COC[C@H](O)CN2Cc2cccc(C(F)(F)F)c2)O1)NCc1ccc(Cl)cc1,AC50,[19],4.85 µM (active)
same,AC50,[20],10.9 µM (active)
C[C@H](C(=O)N(C)C[C@@H]1OCc2ccccc2-c2ccccc2C(=O)N([C@@H](C)CO)C[C@H]1C)c1ccccc1,AC50,[19],1.23 µM (active)
same,AC50,[20],8.04 µM (active)
COc1ccccc1NC(=O)N[C@@H]1C=C[C@H](CC(=O)NCc2ccc(Cl)c(Cl)c2)O[C@@H]1CO,AC50,[19],14.6 µM (active)
same,AC50,[20],43 µM (active)
C=C1CC(OC)(C(OC)C(=O)N[C@H]2OCO[C@H]3C2O[C@H](C[C@@H](COC)OC)C(C)(C)C3OC)O[C@H](C)[C@@H]1C (some centres undefined),GI50,[21],0.57 µM (active)
same,GI50,[22],1060 nM (active)
same,GI50,[23],0.147 µM (active)
Cc1ccc(-c2c(C(=O)N/N=C/c3ccsc3)nnn2-c2nonc2N)cc1,IC50,[1],> 80 µM (inactive)
O=C(O/N=C/c1ccc2c(c1)OCO2)c1ccc([N+](=O)[O-])cc1,IC50,[3],16 µM (not active)
same,IC50,[24],8.31 µM (active)
CC(=O)O[C@H]1CC[C@@]2(C)[C@H](CC[C@@H]3[C@@H]2CC[C@]2(C)[C@@H](c4ccc(=O)oc4)C[C@H]4O[C@]342)C1,GI50,[21],40.9 µM (inactive)
same,GI50,[22],426 nM (active)
same,GI50,[23],11 µM (inactive)
Nc1nc(N)c2cc(Sc3cccc(C(F)(F)F)c3)ccc2n1 [WR-159412],AC50,[6],4.87 µM (active)
same,AC50,[7],2.34 µM (active)
same,AC50,[8],19.7 µM (active)
